Experimental data as given in ChEMBL document CHEMBL2203223, “Identification of novel mPGES-1 inhibitors through screening of a chemical library” (Bioorg Med Chem Lett, 2012).

biological target: T1, Prostaglandin E synthase (Mus musculus) (UniProt Q9JM51); experiment: Inhibition of microsomal PGES1 in mouse RAW264.7 cells assessed as inhibition of LPS-induced PGE2 production at 10 uM incubated for 1 hr prior to LPS challenge measured after 24 hrs by enzyme immunoassay; assay type: cell-based
T1 sequence (whole entry): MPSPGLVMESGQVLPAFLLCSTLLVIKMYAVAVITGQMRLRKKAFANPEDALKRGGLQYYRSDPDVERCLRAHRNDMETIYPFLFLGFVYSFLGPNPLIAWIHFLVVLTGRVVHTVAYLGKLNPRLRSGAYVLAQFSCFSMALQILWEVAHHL

Q: With `O=C(Oc1ccccc1)N(NS(=O)(=O)c1ccccc1)c1ccccc1` as the compound, how does the inhibition read?
A: 93.3%

biological target: T1, Prostaglandin E synthase (Mus musculus); experiment: Inhibition of microsomal PGES1 in mouse RAW264.7 cells assessed as inhibition of LPS-induced PGE2 production at 1 uM incubated for 1 hr prior to LPS challenge measured after 24 hrs by enzyme immunoassay; assay type: cell-based

Q: With `O=C(Oc1ccccc1)N(NS(=O)(=O)c1ccccc1)c1ccccc1` as the compound, how does the inhibition read?
A: 59.9%

biological target: T2, Prostaglandin E synthase (Homo sapiens) (UniProt O14684); experiment: Inhibition of microsomal PGES1 at 10 uM
T2 sequence (whole entry): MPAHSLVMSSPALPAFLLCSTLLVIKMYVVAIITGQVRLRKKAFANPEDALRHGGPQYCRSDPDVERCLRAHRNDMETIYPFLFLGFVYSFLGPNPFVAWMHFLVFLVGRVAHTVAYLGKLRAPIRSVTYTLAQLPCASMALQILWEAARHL

Q: For `O=C(C=C1c2ccccc2-c2ccccc21)NNC(=O)N(c1ccccc1)c1ccccc1`, which inhibition is on record?
A: 90%

Q: With `CN1C(=O)C(NC(=O)Nc2ccccc2Cl)N(C)C(=O)c2ccccc21` (racemic) as the compound, how does the inhibition read?
A: 90%

Q: With `O=C1C(=O)N(c2ccccc2)c2ccccc21` as the compound, how does the inhibition read?
A: 90%

Q: With `Cc1n[nH]c(=S)n(/N=C/c2cccc([N+](=O)[O-])c2)c1=O` as the compound, how does the inhibition read?
A: 90%

Q: Which inhibition does the source give for `CNC(=O)/C(=N/OC)c1ccccc1CO/N=C(/C)c1cccc(O/C(F)=C(\c2ccc(OC)cc2)C(F)(F)F)c1` here?
A: 90%

Q: Which inhibition does the source give for `Cc1cccc(NC(=S)N/N=C/c2cccc([N+](=O)[O-])c2)c1` here?
A: 90%

biological target: T2, Prostaglandin E synthase (Homo sapiens); experiment: Inhibition of microsomal PGES1 at 25 uM

Q: How did the inhibition turn out when `O=C1Sc2ccccc2C1=O` was run?
A: > 80%

Q: With `COc1ccc(OC(=O)Nc2ccccc2)cc1` as the compound, how does the inhibition read?
A: > 80%

Q: How did the inhibition turn out when `CNC(=O)/C(=N\OC)c1ccccc1O` was run?
A: > 80%

Q: How did the inhibition turn out when `CN1C(=O)C(N)NC(=O)c2ccccc21` (racemic) was run?
A: > 80%
